Like-named read-outs stand apart in the source and are kept apart here.
How the values were obtained:
FKBP = FKBP (Homo sapiens, UniProt P62942); assay: PPIase Inhibition Assay; assay type: biochemical
In short: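 Rates from p-nitroaniline release at 390 nm over 90 sec, fitted first-order, were converted to % activity remaining relative to uncatalyzed and uninhibited rates, with IC50 from linear regression of V-/V+ against inhibitor level. FKBP acted on Suc-Ala-Phe-Pro-Phe-pNA with excess chymotrypsin, HEPES pH 7.8, cold buffer.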

human T-cells = assay: Suppression of Human T-Cell Proliferation Assay (PHA-stimulated, [3H]-thymidine incorporation); assay type: cell-based; conditions: read-out: IC50
In short: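 Read-out is scintillation counting of [3H]-thymidine pulsed for the last 6 h of a 72 h, 37° C culture. Human T-cells, isolated from LeukoPaks by Lymphoprep and sheep-erythrocyte rosetting, were PHA-M activated (40 μg/ml stock) with compound dilutions added in duplicate wells.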

NF-AT = NF-AT Inhibition Assay Directed β-Galactosidase Expression in FGL-5 cells; assay type: cell-based
Method: 3) NF-AT Assay Stimulation of T-cells leads to the appearance of several transcription factors, including one designated "NF-AT". These factors are involved in regulation of gene expression required for immunologic activation. Some of these transcription factors appear to have functions in a wide variety of cell types. By contrast, NF-AT is found primarily in T-cells and its role is restricted to early gene activation. […] Inhibition of NF-AT activity is measured using FGL-5 cells. FGL-5 is a cloned line of stably transfected Jurkat T-cells that contain two construct in which three tandem copies of the NF-AT DNA binding site direct transcription of both murine CD8 and the lacZ gene, encoding β-galactosidase ([…] et al., 1990, Genes & Development 4:1823). When these cells are stimulated with phorbol esters which activate protein kinase C and calcium ionophore to raise the intracellular calcium concentration, transcriptionally active NF-AT is produced. In T-cells, this normally leads to the expression of IL-2, T-cell growth factor. However, in FGL-5 cells NF-AT activation leads to the production of β-galactosidase which can be detected using an appropriate substrate. […] NF-AT Inhibition Assay Directed β-Galactosidase Expression This assay was performed essentially as described (Bierer et al., 1990, Proc. Natl. Acad. Sci. 87:9231). […] The assays were done with exponentially growing cells whose density was not greater than 0.5 million cells/ml. The cells were resuspended to 3 million cells/ml in medium and 0.1 ml was added to wells of a 96-well plate. The compounds of the present invention were dissolved in either ethanol or dimethylsulfoxide at 10 mM and […] of various dilutions in medium were added to cells in duplicate wells. Treatment controls consisted of duplicate wells containing 0.5 ml/well of either medium, ethanol or dimethylsulfoxide. The ethanol and dimethyl sulfoxide were at the same concentration as was used for the compounds. […] Phorbol dibutyrate (Sigma) and Ionomycin (Calbiochem) were dissolved at 50 μg/ml and 2 mM, respectively and stored at -70° C. […] For unstimulated cell controls, 0.5 ml/well of medium was added to duplicate wells. The plates were incubated overnight (16-18 hours) at 37° C. in a humidified atmosphere of 5% CO2 and air. β-galactosidase activity was measured as the fluorescence generated by the cleavage of 4-methyl umbelliferyl-β-D-galactoside (Sigma) at the β-galactoside bond. After overnight incubation, the cells were centrifuged at 500×g for 3 minutes in the 96-well plates and washed 3 times with PBS. […] The percent inhibition by each concentration of the compounds was calculated as: […]

[1] = concentration of inhibitor required for 50% inhibition of enzyme activity, FKBP, substrate Succinyl-Ala-Phe-Pro-Phe-para-nitroanilide, TABLE I
[2] = concentration inhibiting [3H]-thymidine incorporation of PHA-stimulated T-cells by 50%, 72 hours, TABLE 2
[3] = 50% inhibition of NF-AT directed β-galactosidase activity in FGL-5 cells stimulated with phorbol dibutyrate and ionomycin, TABLE 3

FKBP, sequence (P62942 whole entry): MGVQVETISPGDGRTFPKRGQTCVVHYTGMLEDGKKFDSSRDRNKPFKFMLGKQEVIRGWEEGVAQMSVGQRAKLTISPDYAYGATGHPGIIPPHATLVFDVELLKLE

| SMILES | IC50 (FKBP; [1]) [µM] | IC50 (NF-AT; [3]) [µM] | IC50 (FKBP) [µM] | IC50 (human T-cells) [µM] | IC50 (NF-AT) [µM] | IC50 (human T-cells; [2]) [µM] |
| --- | --- | --- | --- | --- | --- | --- |
| CC[C@H](C)[C@H](NC(=O)[C@@H]1CCCN1CC(=O)c1ccco1)C(=O)NCc1ccccc1 [Example 37, L-Isoleucine, N-[1-(2-Furan-2-yl-2-Oxoethyl)-L-Prolyl] Benzylamide] |  |  | > 50 | > 100 | > 100 |  |
| CCCCCC1CCC(C(=O)CN2CCC[C@H]2C(=O)N[C@H](C(=O)NCc2ccccc2)[C@@H](C)CC)CC1 (stereo partly drawn) [Example 42, L-Isoleuclne, N-[1-(2-(4-Pentylcyclohexyl)-2-Oxoethyl)-L-Prolyl] Benzylamide] | > 5 | 22 |  |  |  | 7 |
| CC[C@H](C)[C@H](NC(=O)[C@@H]1CCCN1CC(=O)C1CCc2ccccc2C1)C(=O)NCc1ccccc1 (stereo partly drawn) [Example 43, L-Isoleuclne, N-[1-(2-(1,2,3,4-tetrahydro-Napththalen-2-yl)-2-Oxoethyl)-L-Prolyl] Benzylamide] | < 5 | 14 |  |  |  | 16 |
| CC[C@H](C)[C@H](NC(=O)[C@@H]1CCCN1CC(=O)C12CC3CC(CC1C3)C2)C(=O)NCc1ccccc1 [Example 45, L-Isoleucine, N-[1-(2-Oxo-2-Tricyclo[3.3.1.0 ^3,7]Non-3-yl-Ethyl)-L-Prolyl] Benzylamide] | < 5 | > 33 |  |  |  | 20 |
| CC[C@H](C)[C@H](NC(=O)[C@@H]1CCCN1CC(=O)CC12CC3CC(CC(C)(C3)C1)C2)C(=O)NCc1ccccc1 [Example 46, L-Isoleucine, N-[1-(2-Oxo-3-(3-Methyl-Adamantan-1-yl)-Propyl)-L-Prolyl] Benzylamide] | < 5 | 15 |  |  |  | 13 |
| O=C(CNC(=O)[C@@H]1CCCN1CC(=O)C12CC3CC(CC(C3)C1)C2)NCc1ccccc1 [Example 55, Glycine, N-[1-(2-Adamantan-1-yl-2-Oxoethyl)-L-Prolyl] Benzylamide] | 5.1 | 44 |  |  |  | 13 |

Further lines, with some results ahead:

| IC50 (FKBP; [1]) [µM] | IC50 (NF-AT; [3]) [µM] | SMILES | IC50 (FKBP) [µM] | IC50 (human T-cells) [µM] | IC50 (NF-AT) [µM] | IC50 (human T-cells; [2]) [µM] |
| --- | --- | --- | --- | --- | --- | --- |
| 1.2 | 73 | CC(C)[C@H](NC(=O)[C@@H]1CCCN1CC(=O)C12CC3CC(CC(C3)C1)C2)C(=O)NCc1ccccc1 [Example 56, L-Valine, N-[1-(2-Adamantan-1-yl-2-Oxoethyl)-L-Prolyl] Benzylamide] |  |  |  | 8 |
| 0.22 | > 100 | CC(C)C[C@H](NC(=O)[C@@H]1CCCN1CC(=O)C12CC3CC(CC(C3)C1)C2)C(=O)NCc1ccccc1 [Example 57, L-Leucine, N-[1-(2-Adamantan-1-yl-2-Oxoethyl)-L-Prolyl] Benzylamide] |  |  |  | 8 |
| 2.3 | 20 | O=C(NCc1ccccc1)[C@H](Cc1ccccc1)NC(=O)[C@@H]1CCCN1CC(=O)C12CC3CC(CC(C3)C1)C2 [Example 58, L-Phenylalanine, N-[1-(2-Adamantan-1-yl-2-Oxoethyl)-L-Prolyl] Benzylamide] |  |  |  | 7 |
| 0.71 | > 100 | CCC[C@H](NC(=O)[C@@H]1CCCN1CC(=O)C12CC3CC(CC(C3)C1)C2)C(=O)NCc1ccccc1 [Example 59, L-Norvaline, N-[1-(2-Adamantan-1-yl-2-Oxoethyl)-L-Prolyl] Benzylamide] |  |  |  | 10 |
| 0.4 | 18 | CCCC[C@H](NC(=O)[C@@H]1CCCN1CC(=O)C12CC3CC(CC(C3)C1)C2)C(=O)NCc1ccccc1 [Example 60, L-Norleucine, N-[1-(2-Adamantan-1-yl-2-Oxoethyl)-L-Prolyl] Benzylamide] |  |  |  | 16 |
| < 5 | > 100 | NC(=O)C[C@H](NC(=O)[C@@H]1CCCN1CC(=O)C12CC3CC(CC(C3)C1)C2)C(=O)NCc1ccccc1 [Example 61, L-Asparagine, N-[1-(2-Adamantan-1-yl-2-Oxoethyl)-L-Prolyl] Benzylamide] |  |  |  | 17 |
| < 5 | 16 | O=C(NCc1ccccc1)[C@H](CC1CCCCC1)NC(=O)[C@@H]1CCCN1CC(=O)C12CC3CC(CC(C3)C1)C2 [Example 64, L-Cyclohexylalanine, N-[1-(2-Adamantan-1-yl-2-Oxoethyl)-L-Prolyl] Benzylamide] |  |  |  | 7 |

— patent US5686424A, “2-oxoethyl derivatives as immunosuppressants” (Miles Inc., priority 1995, dated 1997)
